From EP0430300A2, “Xanthine derivatives, their production and use” (Takeda Chemical Industries, Ltd., priority 1989, dated 1991)
pIC50: −log10 of the molar value.

Target: T1, Angiotensin II receptor (Bos taurus, UniProt P25104)
T1 construct: Angiotensin II receptor membrane fractions were prepared from bovine adrenal cortex; from tissue; host or cells: bovine adrenal cortex membrane fraction
T1 sequence (P25104 1-359): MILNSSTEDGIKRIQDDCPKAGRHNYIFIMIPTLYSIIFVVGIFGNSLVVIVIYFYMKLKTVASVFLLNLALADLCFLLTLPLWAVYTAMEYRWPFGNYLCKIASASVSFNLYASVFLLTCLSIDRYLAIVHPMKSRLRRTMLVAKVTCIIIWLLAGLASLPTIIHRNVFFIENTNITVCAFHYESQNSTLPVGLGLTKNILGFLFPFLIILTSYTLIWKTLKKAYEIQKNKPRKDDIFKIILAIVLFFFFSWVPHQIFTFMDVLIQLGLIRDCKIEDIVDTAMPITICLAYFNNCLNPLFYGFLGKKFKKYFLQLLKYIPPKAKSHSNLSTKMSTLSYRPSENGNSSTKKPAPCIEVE
Experiment: Inhibitory effect on binding of angiotensin II to angiotensin receptor (125I-AII radioligand binding, membrane fractions)
Settings: A II receptor membrane fraction from bovine adrenal cortex, room temperature, one hour, compound 10^-9-3x10^-5 M, read-out: Inhibitory Activity against Binding of Angiotensin II IC50
Procedure: Inhibitory assay for the binding of angiotensin II to angiotensin receptor was conducted by modifying a method as described by Douglas et al. (Endocrinology, 102, 685-696 (1978)).
Angiotensin II receptor membrane fractions were prepared from bovine adrenal cortex.
The compound (I) of the present invention (10^-9-3x10^-5 M) and […] (^125I-AII) (1.8kBq/50µl) were added to the A II receptor membrane fraction and incubated at room temperature for one hour. The bound and free ^125I-AII were separated by a filter (Whatman GF/B filter) each other. The radioactivity of ^125I-All bound on the receptor was measured.

Cn1c(=O)c2c(nc(-c3ccccc3)n2Cc2ccc(-c3ccccc3-c3nn[nH]n3)cc2)n(C)c1=O [Compound 7] was tested, and the pIC50 was 7.19.
With Cn1c(=O)c2c(nc(C3CCCC3)n2Cc2ccc(-c3ccccc3-c3nn[nH]n3)cc2)n(C)c1=O [Compound 9] the pIC50 was 6.03.
For CCOc1nc2c(c(=O)n(C)c(=O)n2C)n1Cc1ccc(-c2ccccc2-c2nnn[nH]2)cc1 [Compound 2, 8-Ethoxy-1,3-dimethyl-7-[[2'-(1 H-tetrazole-5-yl)-biphenyl-4-yl)methyl)xanthine], the pIC50 was 7.31.
In the case of CCCCSc1nc2c(c(=O)n(C)c(=O)n2C)n1Cc1ccc(-c2ccccc2C(=O)O)cc1 [Compound 33], the pIC50 was 6.55.
For CCCCc1nc2c(c(=O)n(CCCC)c(=O)n2C)n1Cc1ccc(-c2ccccc2-c2nnn[nH]2)cc1 [Compound 29], the pIC50 was 6.00.
Work on CCCCSc1nc2c(c(=O)n(CC)c(=O)n2CCC)n1Cc1ccc(-c2ccccc2-c2nnn[nH]2)cc1 [Compound 26] yielded a pIC50 of 5.70.
For CCCc1nc2c(c(=O)n(C)c(=O)n2C)n1Cc1ccc(-c2ccccc2-c2nn[nH]n2)cc1 [Compound 5], the pIC50 was 6.77.
Molecule CCCCSc1nc2c(c(=O)n(C)c(=O)n2C)n1Cc1ccc(-c2ccccc2-c2nnn[nH]2)cc1 [Compound 34] has a pIC50 of 6.89.
CCCCc1nc2c(c(=O)n(CC)c(=O)n2CC)n1Cc1ccc(-c2ccccc2-c2nnn[nH]2)cc1 [Compound 31] showed a pIC50 of 6.96.
With CCOc1nc2c(c(=O)n(CC)c(=O)n2CC)n1Cc1ccc(-c2ccccc2-c2nnn[nH]2)cc1 [Compound 35] the pIC50 was 5.96.
Cn1c(=O)c2c(nc(C3CC3)n2Cc2ccc(-c3ccccc3-c3nn[nH]n3)cc2)n(C)c1=O [Compound 8] was tested, and the pIC50 was 6.22.
With CCCCc1nc2c(c(=O)n(CCCC)c(=O)n2CCCC)n1Cc1ccc(-c2ccccc2-c2nnn[nH]2)cc1 [Compound 27] the pIC50 was 5.68.
Work on CCCCc1nc2c(c(=O)n(CC)c(=O)n2CCC)n1Cc1ccc(-c2ccccc2-c2nn[nH]n2)cc1 [Compound 22] yielded a pIC50 of 6.08.
CCCCc1nc2c(c(=O)n(CCC)c(=O)n2CCCC)n1Cc1ccc(-c2ccccc2-c2nnn[nH]2)cc1 [Compound 28] showed a pIC50 of 6.72.
With CCCc1nc2c(c(=O)n(CC)c(=O)n2CCC)n1Cc1ccc(-c2ccccc2-c2nn[nH]n2)cc1 [Compound 21] the pIC50 was 6.25.
For CCCCSc1nc2c(c(=S)n(C)c(=O)n2C)n1Cc1ccc(-c2ccccc2-c2nn[nH]n2)cc1 [Compound 17], the pIC50 was 6.12.
With CCCSc1nc2c(c(=O)n(C)c(=S)n2C)n1Cc1ccc(-c2ccccc2-c2nn[nH]n2)cc1 [Compound 20] the pIC50 was 5.82.
In the case of CCCCc1nc2c(c(=O)n(C)c(=S)n2C)n1Cc1ccc(-c2ccccc2-c2nn[nH]n2)cc1 [Compound 13], the pIC50 was 7.31.
Work on CCCCCc1nc2c(c(=O)n(C)c(=O)n2C)n1Cc1ccc(-c2ccccc2C(=O)O)cc1 [Compound 4, 7-(2'-Carboxybiphenyl-4-yl)methyl-8-n-pentyl-1,3-dimethylxanthine] yielded a pIC50 of 7.21.
Molecule CCCCc1nc2c(c(=O)n(C)c(=O)n2C)n1Cc1ccc(-c2ccccc2-c2nnn[nH]2)cc1 [Compound 1] has a pIC50 of 6.55.
CCCCSc1nc2c(c(=O)n(CCC)c(=O)n2CCC)n1Cc1ccc(-c2ccccc2-c2nnn[nH]2)cc1 [Compound 25] was tested, and the pIC50 was 6.25.
Cn1c(=O)c2c(nc(Cc3ccccc3)n2Cc2ccc(-c3ccccc3-c3nn[nH]n3)cc2)n(C)c1=O [Compound 10] gave a pIC50 of 5.47.
Molecule CCC=CCc1nc2c(c(=O)n(CCC)c(=O)n2CCC)n1Cc1ccc(-c2ccccc2-c2nnn[nH]2)cc1 [Compound 30] has a pIC50 of 6.42.
CCCSc1nc2c(c(=S)n(C)c(=O)n2C)n1Cc1ccc(-c2ccccc2-c2nn[nH]n2)cc1 [Compound 19] showed a pIC50 of 5.82.
Molecule CC(Cc1nc2c(c(=O)n(C)c(=O)n2C)n1Cc1ccc(-c2ccccc2-c2nn[nH]n2)cc1)c1ccccc1 (stereo not shown) [Compound 12] has a pIC50 of 6.48.
Molecule CC(C)Cc1nc2c(c(=O)n(C)c(=O)n2C)n1Cc1ccc(-c2ccccc2-c2nn[nH]n2)cc1 [Compound 15] has a pIC50 of 6.82.
CCCCc1nc2c(c(=O)n(CCC)c(=O)n2CCC)n1Cc1ccc(-c2ccccc2-c2nn[nH]n2)cc1 [Compound 23] gave a pIC50 of 5.96.
Work on Cn1c(=O)c2c(nc(CCCCc3ccccc3)n2Cc2ccc(-c3ccccc3-c3nn[nH]n3)cc2)n(C)c1=O [Compound 14] yielded a pIC50 of 6.48.
